From patent US20250339405A1, “a-SYNUCLEIN AGGREGATE BINDING AGENT AND IMAGING METHOD” (National Institutes for quantum and Radiological Science …, priority 2019, published 2025) come the findings set out here.

For series [1], the target named is T1, lesion composed of the phosphorylated α-synuclein (Mus musculus, UniProt O55042).
T1 construct: from tissue; host or cells: brain of C57BL/6 mice inoculated in the striatum with recombinant murine α-synuclein fibrils (made in E. coli)
The series is described as follows: In vitro fluorescence microscope measurement, α-synuclein fibril-injected mouse brain sections. To be noted: 30 μM, 20% ethanol, 30 minutes, room temperature. It is filed as binding. On the procedure: First, murine α-synuclein was expressed in and extracted from E. coli as a recombinant protein, and incubated in vitro to form an insoluble α-synuclein aggregate.
Note that the α-synuclein aggregate was inoculated into the striatum of the mouse with the following manner. First, hair on the head of 9-week-old C57BL/6 male mouse anesthetized with 1.5% (v/v) isoflurane was removed, and the scalp was disinfected with isodine, followed by application of xylocaine and incision in the scalp to expose the skull. […]
The brain of the α-synuclein fibril-injected mouse was extracted, sectioned, and analyzed by fluorescent staining. […] After mounting the sections using a mounting medium (VECTASHIELD H-1000), images of α-synuclein aggregate-enriched areas on the sections were obtained using a fluorescence microscope (DM4000). […] Immunohistochemical staining with an anti-phosphorylated α-synuclein monoclonal antibody (pS129, abcam, ab59264) (1:1000) was carried out, and after mounting the sections using a mounting medium (VECTASHIELD H-1000), images of the same areas were obtained using the fluorescence microscope (DM4000).

The target of series [2] is T2, α-synuclein aggregate formed in the brain of the DLB patient (Homo sapiens, UniProt P37840).
T2 construct: Postfixed fresh frozen sections of the amygdala tissue of the DLB patient; from tissue; host or cells: post-mortem human DLB amygdala, frozen sections
Description: In vitro fluorescence microscope measurement, DLB patient brain sections. The class given is binding. As to conditions: 30 μM compound, 50% ethanol, 30 minutes, room temperature, amygdala sections. From the text:
Postmortem human brains were obtained from autopsies carried out with respect to a dementia with Lewy bodies (DLB) and Alzheimer's disease (AD) patients.
A frozen DLB tissue was sliced with a thickness of 20 μm in a cryostat (HM560, Carl Zeiss).
Postfixed fresh frozen sections of the amygdala tissue of the DLB patient and formalin fixed, paraffin embedded sections of a deparaffinized middle frontal gyrus tissue of the AD patient were used. Thirty μM of each of the above compounds and brain sections were incubated in a 50% ethanol solution for 30 minutes at room temperature. The sections were then washed twice, i.e., washed with a 50% ethanol solution for 5 minutes and with ultrapure water for 3 minutes. After mounting the sections using a mounting medium (VECTASHIELD H-1000, Vector Laboratories), images of lesion-enriched areas on the sections were obtained using a fluorescence microscope (DM4000, Leica). Analysis software (Image J) was used to quantify the fluorescence of lesion-enriched and lesion-free (background) areas.

Series [3] concerns the target T3, A53T mutant human α-synuclein (Homo sapiens, UniProt P37840, A53T).
T3 construct: made in house; host or cells: E. coli
The series is described as follows: Inhibitory effect on α-synuclein aggregation (seeded, sarkosyl-insoluble fraction, CBB staining). It is filed as biochemical. As to conditions: 37° C., 1 day. On the procedure:
First, A53T mutant human α-synuclein was expressed in and extracted from E. coli as a recombinant protein, and incubated in vitro to prepare α-synuclein aggregate seeds. To 0.02 μg of the α-synuclein aggregate seeds, C05-05 (in DMSO solution) was added at a final concentration of 20 μM, or 200 μM and stirred. An experiment in which only DMSO was added was conducted as a control experiment. These were suspended with 50 μL of A53T mutant human-synuclein monomer solution at a concentration of 1 mg/ml and then shaken at 37° C. for 1 day. Ten μL of the suspension was mixed with 90 μL of 1% sarkosyl and ultracentrifuged at 100 Krpm for 20 minutes, and a resulting precipitate was subjected to electrophoresis, followed by CBB staining of the gel. Images of the gels were obtained using an imager, and quantification of bands was carried out using analysis software (Image J).

The target in series [4] is T4, α-synuclein lesions (Mus musculus, UniProt O55042).
T4 construct: from tissue; host or cells: brain of C57BL/6 mice inoculated in the striatum with recombinant murine α-synuclein fibrils (made in E. coli)
The series is described as follows: Ex vivo imaging of α-synuclein fibril-injected model mouse brain. The class given is in vivo. On the procedure: A model mouse at 6 weeks after the injection of the α-synuclein fiber solution was anesthetized with 1.5% (v/v) isoflurane in a manner similar to that described in “(Preparation of α-synuclein fibril-injected mouse model)” above, and C05-05 (1.66 mg/kg) or BF-227 (1.66 mg/kg) was intraperitoneally administered.
The brains were collected and frozen 90 minutes after the administration of C05-05 (or 120 minutes after the administration of BF-227), and frozen sections with the thickness of 20 μm were prepared in a cryostat (HM560). After mounting the sections using a mounting medium (VECTASHIELD H-1000), images of α-synuclein aggregate-enriched areas on the sections were obtained using a fluorescence microscope (DM4000).
Moreover, the same sections were immersed and fixed overnight in a phosphate buffer solution containing 4% paraformaldehyde. The brain after fixation was washed under running water and then treated with an autoclave for the antigen retrieval. Immunohistochemical staining with an anti-phosphorylated α-synuclein monoclonal antibody (pS129, abcam, ab59264) (1:1000) was carried out, and after mounting the sections using a mounting medium (VECTASHIELD H-1000), images of the same areas were obtained using the fluorescence microscope (DM4000). FIG. 7(a) contains images showing the case where C05-05 was administered, and FIG. 7(b) is images showing the case where BF-227 was administered.

The target in series [5] is T4, α-synuclein lesions. The series is described as follows: In vivo two-photon laser scanning fluorescence microscopy of α-synuclein fibril-injected model mouse. On the procedure:
Note that the α-synuclein aggregate was inoculated into the striatum of the mouse with the following manner. First, hair on the head of 9-week-old C57BL/6 male mouse anesthetized with 1.5% (v/v) isoflurane was removed, and the scalp was disinfected with isodine, followed by application of xylocaine and incision in the scalp to expose the skull. Then, a hole was drilled in the skull at a position of 0.05 mm posterior to the bregma and 2 mm lateral to the midline, and 3 μl of an α-synuclein fiber solution (murine α-synuclein fiber (4 mg/ml) in saline) was injected into a position […] ventral to the brain surface using a glass pipette, and then the scalp was returned and sutured.
A model mouse was anesthetized with 1.5% (v/v) isoflurane 6 weeks after the injection of the α-synuclein fiber solution, and a cranial window was provided according to the Seylaz-Tomita method (Tomita et al. J Cereb Blood Flow Metab 25, 858-67, 2005). The mouse was anesthetized with 1.5% (v/v) isoflurane 2 weeks after the generation of the cranial window, and 50 μl of a solution of DMSO/physiological saline water=1:1 containing 0.05% of C05-05 or PBB3 was administered via the tail vein. The mouse was fixed under a two-photon laser fluorescence microscope 90 minutes after administration of C05-05 or 30 minutes after administration of PBB3, and 100 μl of a saline solution containing 5 mM of Sulforhodamine 101 was administered intraperitoneally, followed by intravital two-photon fluorescence imaging at an excitation wavelength of 900 nm. The detection wavelengths for C05-05 and PBB3 were set at 500 nm to 550 nm, and detection wavelengths for Sulforhodamine 101 were set at 573 nm to 648 nm.

For `CNc1ccc(C#C/C=C/c2nc3ccc(OCC(O)CF)cc3s2)cn1` (stereo not shown) [C05-05, (E)-1-fluoro-3-(2-(4-(6-(methylamino)pyridin-3-yl)but-1-en-3-ynyl)benzo[d]thiazol-6-yloxy)propan-2-ol], the “binding to phosphorylated α-synuclein lesion (co-staining with pS129 antibody)” value in series [1] is “binds to the lesion composed of the phosphorylated α-synuclein”. For the same compound, the “binding to the α-synuclein aggregate formed in the brain of the DLB patient, reactivity relative to PBB3” value in series [2] is on record as “reactivity equal to or greater than that of PBB3”. Also, the figures for the “reduction of formation of insoluble α-synuclein aggregate compared with control experiment (DMSO)” value in series [3] (final concentration 20 μM) and in series [3] (final concentration 200 μM) were “approximately 20%” and “approximately 60%”, respectively. Moreover, on α-synuclein lesions [4] (1.66 mg/kg, model mouse), the “entry into the brain (ex vivo imaging)” value was “entered the brain”. Besides, the “detection of α-synuclein lesions by ex vivo imaging” value on α-synuclein lesions [4] (1.66 mg/kg, brains collected 90 minutes after C05-05 or 120 minutes after BF-227) is on record as “bound to individual α-synuclein lesions”. The “contrast in detecting lesions relative to BF-227” value on α-synuclein lesions [4] (ex vivo imaging) is listed as “higher contrast than BF-227”. In addition, the “contrast in detecting lesions relative to PBB3” value on α-synuclein lesions [5] (intravital two-photon imaging) is “higher contrast than PBB3”. Besides, the “detection of α-synuclein lesions by intravital two-photon fluorescence imaging” value at α-synuclein lesions [5] (tail vein, 50 μl of 0.05% solution, 90 minutes after C05-05 or 30 minutes after PBB3) is recorded as “bound to individual α-synuclein lesions”. Also, on α-synuclein lesions [5] (tail vein, model mouse), the “entry into the brain after intravenous injection” value was “entered the brain of the living body”.
